Our source for the IC50 values is US11254688B2 (Boehringer Ingelheim International GmbH, priority 2018, dated 2022).

This test deals with T1, hGOAT (Homo sapiens, UniProt Q96T53).
T1 construct: expressed in transfected cells; host or cells: HEK293 (Hek293 hGOAT/PPGhrl Clone #1B8)
T1 sequence (Q96T53 1-435): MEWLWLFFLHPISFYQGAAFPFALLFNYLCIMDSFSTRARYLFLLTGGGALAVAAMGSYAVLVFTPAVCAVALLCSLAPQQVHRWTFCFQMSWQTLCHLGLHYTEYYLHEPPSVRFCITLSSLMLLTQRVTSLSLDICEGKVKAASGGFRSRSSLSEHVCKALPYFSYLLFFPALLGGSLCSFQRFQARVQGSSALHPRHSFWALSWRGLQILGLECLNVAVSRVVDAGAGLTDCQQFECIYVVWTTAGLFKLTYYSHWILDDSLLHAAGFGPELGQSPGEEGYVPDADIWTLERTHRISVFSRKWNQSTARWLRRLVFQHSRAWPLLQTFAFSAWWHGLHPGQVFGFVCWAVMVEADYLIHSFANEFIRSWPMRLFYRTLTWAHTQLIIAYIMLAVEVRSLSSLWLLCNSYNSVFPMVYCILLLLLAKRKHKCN
The test can be described thus: Determination of hGOAT activity in HEK293 cells after incubation with test compound (acyl-ghrelin ELISA). The format is cell-based. The settings on record: HEK293 cells stably transfected with preproghrelin and human GOAT; octanoate-BSA 100 μM; 5 hours incubation; acyl-ghrelin in medium by ELISA; 8 compound concentrations. On the procedure: Determination of hGOAT Activity in HEK293 Cells after Incubation with Test Compound
HEK293 cells stably transfected with two expression vectors, one coding for preproghrelin cDNA and a second for the expression of human GOATcDNA are used as a cellular model. After feeding the cells with octanoic acid for 5 hours, acyl-ghrelin is measured in cell culture medium by an ELISA procedure.
Cellline: Hek293 hGOAT/PPGhrl Clone #1B8Sodium octanoate, Sigma, Cat.-No. C5038
BD Poly-D-Lysin 384-well Plates, black-clear polystyrene BD Bioscience Cat.-No. […] ELISA human acylated Ghrelin Kit purchased from Bertin Pharman (detailed composition of buffers e.g. wash-puffer, ELISA buffer not known)
Cells are plated with a density of 5000 cells/well in 384-well poly-D-lysin plates and incubated for 1 day at 37° C., 5% CO2 in DMEM medium, 10% FCS, 1×NEAA, Puromycin (0.5 μg/ml) and G418 (1 mg/ml). Then the medium is changed to a identical medium without FCS and containing Octanoate-BSA (final concentration 100 μM each) and compound in DMSO (final DMSO concentration 0,3%). After incubation for 5 hours acylghrelin in the medium is measured by ELISA.
The medium sample is diluted 1:25 in Elisa buffer, a 25 μl aliquot is transferred to a 384-well ELISA plate previously washed 4 times with 100 μL wash buffer, and 25 μl tracer-solution is added. After incubation overnight (˜20 h) at 4° C. temperature the plate is washed 4 times with 100 μl wash-buffer per well. Finally 50 μl Ellman's reagent is added to each well and the plate is incubated in the dark for 20 minutes. The absorbance is measured at 405 nm in an Envision multilabel reader and the amount of acylated ghrelin is calculated according to a acylated ghrelin standard curve provided in the same plate.
The analysis of the data is performed by calculation of the percentage of acyl-ghrelin produced in the presence of test compound compared to the amount of acyl-ghrelin produced in the vehicle control samples. An inhibitor of the GOAT enzyme will give values between 100% CTL (no inhibition) and 0% CTL (complete inhibition).
IC50 values are calculated with Assay Explorer or other suited software based on curve fitting of results of 8 different compound concentrations.
(In general: In an ELISA, binding on a coated surface is turned into a signal by an enzyme label.)
With `Cc1nc2nonc2c(N)c1Cc1cccn2cnnc12` [Compound 4.11, 5-Methyl-6-({[1,2,4]triazolo[4,3-a]pyridin-8-yl}methyl)-[1,2,5]oxadiazolo[3,4-b]pyridin-7-amine], the IC50 came to 3.42 nM.
Next, `Cc1nc2nonc2c(N)c1Cc1ccc(C(F)(F)F)n2cnnc12` [Compound 4.12, 5-Methyl-6-{[5-(trifluoromethyl)-[1,2,4]triazolo[4,3-a]pyridin-8-yl]methyl}-[1,2,5]oxadiazolo[3,4-b]pyridin-7-amine]: 0.571 nM.
Next, `Cc1nc2nonc2c(N)c1Cc1cccn2c(C3CC3)nnc12` [Compound 4.13, 6-({3-Cyclopropyl-[1,2,4]triazolo[4,3-a]pyridin-8-yl}methyl)-5-methyl-[1,2,5]oxadiazolo[3,4-b]pyridin-7-amine]: 0.89 nM; `Cc1nc2nonc2c(N)c1Cc1ccc(Cl)n2cnnc12` [Compound 4.14, 6-({5-Chloro-[1,2,4]triazolo[4,3-a]pyridin-8-yl}methyl)-5-methyl-[1,2,5]oxadiazolo[3,4-b]pyridin-7-amine]: 0.665 nM; `Cc1nc2nonc2c(N)c1Cc1ccc(OC(F)F)n2cnnc12` [Compound 4.15, 6-{[5-(Difluoromethoxy)-[1,2,4]triazolo[4,3-a]pyridin-8-yl]methyl}-5-methyl-[1,2,5]oxadiazolo[3,4-b]pyridin-7-amine]: 0.33 nM.
Under `Cc1nc2nonc2c(N)c1Cc1ccc(OC(F)F)nc1` [Compound 4.16, 6-{[6-(Difluoromethoxy)pyridin-3-yl]methyl}-5-methyl-[1,2,5]oxadiazolo[3,4-b]pyridin-7-amine] stands 0.642 nM; under `Cc1nc2nonc2c(N)c1Cc1ccc(OC2CCC2)nc1` [Compound 4.17, 6-[(6-Cyclobutoxypyridin-3-yl)methyl]-5-methyl-[1,2,5]oxadiazolo[3,4-b]pyridin-7-amine], 0.371 nM.
The molecule `Cc1nc2nonc2c(N)c1Cc1ccc(Cl)nc1` [Compound 4.18, 6-[(6-Chloropyridin-3-yl)methyl]-5-methyl-[1,2,5]oxadiazolo[3,4-b]pyridin-7-amine] registered a concentration for half-maximal inhibition (IC50) of 1.65 nM.
With `CSc1ccc(Cc2c(C)nc3nonc3c2N)cc1` [Compound 4.19, 5-Methyl-6-{[4-(methylsulfanyl)phenyl]methyl}-[1,2,5]oxadiazolo[3,4-b]pyridin-7-amine], the half-inhibitory concentration (IC50) turned out to be 0.174 nM.
Next, `Cc1nc2nonc2c(N)c1Cc1ccc2nccn2c1` [Compound 4.20, 6-Imidazo[1,2-a]pyridin-6-ylmethyl-5-methyl-[1,2,5]oxadiazolo[3,4-b]pyridin-7-ylamine]: 5.51 nM; `Cc1nc2nonc2c(N)c1Cc1ccn2ncnc2c1` [Compound 4.21, 5-Methyl-6-({[1,2,4]triazolo[1,5-a]pyridin-7-yl}methyl)-[1,2,5]oxadiazolo[3,4-b]pyridin-7-amine]: 3.41 nM; `Cc1ncc(-c2ccc(Cc3c(C)nc4nonc4c3N)cn2)o1` [Compound 4.22, 5-Methyl-6-{[6-(2-methyl-1,3-oxazol-5-yl)pyridin-3-yl]methyl}-[1,2,5]oxadiazolo[3,4-b]pyridin-7-amine]: 4.81 nM.
Next, `COC(=O)c1cn2cc(Cc3c(C)nc4nonc4c3N)ccc2n1` [Compound 4.23, Methyl 6-({7-amino-5-methyl-[1,2,5]oxadiazolo[3,4-b]pyridin-6-yl}methyl)imidazo[1,2-a]pyridine-2-carboxylate]: 7.76 nM; `Cc1nc2nonc2c(N)c1Cc1ccc(C(C)(C)C#N)nc1` [Compound 4.24, 2-[5-({7-Amino-5-methyl-[1,2,5]oxadiazolo[3,4-b]pyridin-6-yl}methyl)pyridin-2-yl]-2-methylpropanenitrile]: 0.838 nM; `CCC(C#N)(CC)c1ccc(Cc2c(C)nc3nonc3c2N)cn1` [Compound 4.25, 2-[5-({7-Amino-5-methyl-[1,2,5]oxadiazolo[3,4-b]pyridin-6-yl}methyl)pyridin-2-yl]-2-ethylbutanenitrile]: 0.081 nM.
Next, `Cc1nc2nonc2c(N)c1Cc1ccc(C2(C#N)CCCC2)nc1` [Compound 4.26, 1-[5-({7-Amino-5-methyl-[1,2,5]oxadiazolo[3,4-b]pyridin-6-yl}methyl)pyridin-2-yl]cyclopentane-1-carbonitrile]: 0.098 nM; `Cc1nc2nonc2c(N)c1Cc1ccc(C2(C#N)CCOCC2)nc1` [Compound 4.27, 4-[5-({7-Amino-5-methyl-[1,2,5]oxadiazolo[3,4-b]pyridin-6-yl}methyl)pyridin-2-yl]oxane-4-carbonitrile]: 1.65 nM.
Regarding `Cc1nc2nonc2c(N)c1Cc1ccc(C2(C#N)CC(F)(F)C2)nc1` [Compound 4.28, 1-[5-({7-Amino-5-methyl-[1,2,5]oxadiazolo[3,4-b]Pyridin-6-yl}methyl)pyridin-2-yl]-3,3-difluorocyclobutane-1-carbonitrile], the IC50 amounted to 1.5 nM.
The molecule `Cc1nc2nonc2c(N)c1Cc1ccc(Br)nc1` [Compound 4.29, 6-[(6-Bromopyridin-3-yl)methyl]-5-methyl-[1,2,5]oxadiazolo[3,4-b]pyridin-7-amine] displayed an IC50 of 1.27 nM.
As to `Cc1nc2nonc2c(N)c1Cc1ccc(C(F)F)nc1` [Compound 4.30, 6-{[6-(Difluoromethyl)pyridin-3-yl]methyl}-5-methyl-[1,2,5]oxadiazolo[3,4-b]pyridin-7-amine], the IC50 was 1.39 nM.
`Cc1nc2nonc2c(N)c1Cc1ccc(C#N)c(F)c1` [Compound 4.31, 4-({7-Amino-5-methyl-[1,2,5]oxadiazolo[3,4-b]pyridin-6-yl}methyl)-2-fluorobenzonitrile] had an IC50 of 0.487 nM.
Under `Cc1nc2nonc2c(N)c1Cc1ccc(SC(F)(F)F)cc1` [Compound 4.32, 5-Methyl-6-({4-[(trifluoromethyl)sulfanyl]phenyl}methyl)-[1,2,5]oxadiazolo[3,4-b]pyridin-7-amine] stands 0.064 nM.
Under `Cc1nc2nonc2c(N)c1Cc1ccc(OC(F)F)cc1` [Compound 4.33, 6-{[4-(Difluoromethoxy)phenyl]methyl}-5-methyl-[1,2,5]oxadiazolo[3,4-b]pyridin-7-amine] stands 0.114 nM; under `Cc1nc2nonc2c(N)c1Cc1ccc2nn(C)cc2c1` [Compound 4.34, 5-Methyl-6-[(2-methyl-2H-indazol-5-yl)methyl]-[1,2,5]oxadiazolo[3,4-b]pyridin-7-amine], 1.4 nM; under `Cc1nc2nonc2c(N)c1Cc1ccc(C#N)c(OC(F)F)c1` [Compound 4.35, 4-({7-Amino-5-methyl-[1,2,5]oxadiazolo[3,4-b]pyridin-6-yl}methyl)-2-(difluoromethoxy)benzonitrile], 0.111 nM.
Under `Cc1nc2nonc2c(N)c1Cc1cccc(C#N)c1` [Compound 4.36, 3-(7-Amino-5-methyl-[1,2,5]oxadiazolo[3,4-b]pyridin-6-ylmethyl)-benzonitrile] stands 5.8 nM.
Molecule `Cc1nc2nonc2c(N)c1Cc1cc(I)ncc1C(F)(F)F` [Compound 4.37, 6-{[2-Iodo-5-(trifluoromethyl)pyridin-4-yl]methyl}-5-methyl-[1,2,5]oxadiazolo[3,4-b]pyridin-7-amine] returned an IC50 of 0.534 nM.
Next, `Cc1nc2nonc2c(N)c1Cc1cccc(C(F)(F)F)c1` [Compound 4.38, 5-Methyl-6-{[3-(trifluoromethyl)phenyl]methyl}-[1,2,5]oxadiazolo[3,4-b]pyridin-7-amine]: 0.268 nM.

As usually defined, the IC50 is the midpoint of a concentration-inhibition curve. A low value points to greater potency.
